# Activity calls are given as the source filed them. No cut-off for these calls is given here.
# How the values were obtained:
# [1] = molecular target: T1, C5a anaphylatoxin chemotactic receptor 1 (Homo sapiens) (UniProt P21730); test: Displacement of [125I]-C5a from C5aR in human MDM cells at 20 uM after 60 mins by microbeta scintillation counting analysis; type: cell-based
# T1 sequence (whole entry): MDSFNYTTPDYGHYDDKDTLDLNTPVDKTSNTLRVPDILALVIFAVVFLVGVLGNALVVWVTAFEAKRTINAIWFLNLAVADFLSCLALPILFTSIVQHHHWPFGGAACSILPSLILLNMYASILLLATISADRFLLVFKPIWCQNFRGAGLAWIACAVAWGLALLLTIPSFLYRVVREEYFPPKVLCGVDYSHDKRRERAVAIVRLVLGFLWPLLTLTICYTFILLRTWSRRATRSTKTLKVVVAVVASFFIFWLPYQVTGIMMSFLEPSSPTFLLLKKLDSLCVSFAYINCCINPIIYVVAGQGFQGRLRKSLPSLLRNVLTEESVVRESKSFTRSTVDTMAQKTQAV
# [2] = molecular target: T2, C3a anaphylatoxin chemotactic receptor (Homo sapiens) (UniProt Q16581); test: Agonist activity at C3aR in human MDM cells assessed as intracellular calcium efflux at 1 uM measured for 60 secs by fluorescence based receptor desensitization assay; type: functional, cell-based
# T2 sequence (whole entry): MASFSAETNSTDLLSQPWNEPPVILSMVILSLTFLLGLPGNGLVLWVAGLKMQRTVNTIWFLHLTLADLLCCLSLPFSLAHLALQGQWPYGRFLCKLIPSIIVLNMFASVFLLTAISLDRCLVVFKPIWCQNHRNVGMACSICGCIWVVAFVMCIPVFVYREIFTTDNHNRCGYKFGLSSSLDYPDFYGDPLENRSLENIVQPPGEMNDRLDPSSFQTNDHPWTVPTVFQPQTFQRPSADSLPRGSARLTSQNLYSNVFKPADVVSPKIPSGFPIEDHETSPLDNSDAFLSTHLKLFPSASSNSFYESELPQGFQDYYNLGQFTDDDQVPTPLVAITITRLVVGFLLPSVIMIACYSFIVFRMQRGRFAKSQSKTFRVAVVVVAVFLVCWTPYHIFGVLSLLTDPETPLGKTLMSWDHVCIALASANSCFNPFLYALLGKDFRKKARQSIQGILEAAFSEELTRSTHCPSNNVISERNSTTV
# [3] = molecular target: T3, C3a anaphylatoxin chemotactic receptor (Homo sapiens, UniProt Q16581); test: Displacement of [125I]-C3a from C3aR in human MDM cells after 60 mins by microbeta scintillation counting analysis; type: cell-based
# T3 sequence (Q16581 whole entry): T2 sequence (whole entry)
# [4] = molecular target: T2, C3a anaphylatoxin chemotactic receptor (Homo sapiens); test: Displacement of [125I]-C3a from C3aR in human MDM cells at 10 uM after 60 mins by microbeta scintillation counting analysis; type: cell-based
# [5] = molecular target: T2, C3a anaphylatoxin chemotactic receptor (Homo sapiens); test: Agonist activity at C3aR in human MDM cells assessed as induction of intracellular Ca2+ release measured for 60 secs in presence of C3a antagonist SB290157 by fluorescence assay; type: functional, cell-based
# [6] = molecular target: T3, C3a anaphylatoxin chemotactic receptor; test: Agonist activity at C3aR in human MDM cells assessed as inhibition of C3a-induced Ca2+ response measured for 60 secs by fluorescence assay; type: functional, cell-based
Compound,inhibition [1],Activity [2],IC50 [3] [nM],inhibition [4],Activity [5],EC50 [6] [nM]
CC[C@H](C)[C@H](NC(=O)CCC(=O)c1ccc(-c2ccccc2)cc1)c1nc(C(=O)N[C@@H](CCCNC(=N)N)C(=O)O)co1,inactive,inactive,150,,,
CC(C)C[C@H](NC(=O)Cc1ccc(F)cc1)c1nc(C(=O)N[C@@H](CCCNC(=N)N)C(=O)O)co1,inactive,inactive,102,,,
CC[C@H](C)[C@H](NC(=O)c1cncc(Br)c1)c1nc(C(=O)NCCCCNC(=N)N)c(C)o1,inactive,,,inactive,,
Cc1oc([C@H](CC(C)C)NC(=O)OC(C)(C)C)nc1C(=O)N[C@@H](CCCNC(=N)N)C(=O)O,inactive,inactive,14,,inactive,45
CC(C)C[C@H](NC(=O)OC(C)(C)C)c1nc(C(=O)N[C@@H](CCCNC(=N)N)C(=O)O)co1,inactive,inactive,20,,,19
CC[C@H](C)[C@H](NC(=O)C1(C(C)C)C=CCC=C1)c1nc(C(=O)N[C@@H](CCCNC(=N)N)C(=O)O)co1,inactive,,754,,,740
CC(C)C[C@H](NC(=O)OC(C)(C)C)c1nc(C(=O)N[C@@H](CCCNC(N)=O)C(=O)O)co1,inactive,,,inactive,,
CC(C)C[C@H](NC(=O)c1c[nH]c2ccccc12)c1nc(C(=O)N[C@@H](CCCNC(=N)N)C(=O)O)co1,inactive,inactive,,,inactive,
CC[C@H](C)[C@H](NC(=O)c1ccc2ccccc2n1)c1nc(C(=O)N[C@@H](CCCNC(=N)N)C(=O)O)co1,inactive,inactive,123,,,41
CC[C@H](C)[C@H](NC(=O)c1ccccc1Oc1ccccc1)c1nc(C(=O)N[C@@H](CCCNC(=N)N)C(=O)O)co1,inactive,Active,55,,,

# From ChEMBL document CHEMBL3734743, “Potent complement C3a receptor agonists derived from oxazole amino acids: Structure-activity relationships” (Bioorg Med Chem Lett, 2015)
